Assay results reported in publication PMC11831382, “Use of Aldehyde–Alkyne–Amine Couplings to Generate Medicinal Chemistry-Relevant Linkers” (ACS Medicinal Chemistry Letters, 2025).
Entries after “also recorded” stand apart in the source; their conditions may differ.

Assays:
BRD4 = target: T1, BRD4 (Homo sapiens, UniProt O60885); experiment: BRD4 degradation assay, Promega Nano-Glo HiBiT lytic assay; type: cell-based; details: HEK293 CRISPR HiBiT BRD4 cell line
T1 construct: endogenous in cells; host or cells: HEK293 CRISPR HiBiT BRD4 (knock-in)
Method: Data plotted are average ± SD of n = 3 biological replicates.
HEK293 CRISPR HIBIT BRD4 cells were seeded at 5 X 10^5 cells per well in culture medium into
Plates were incubated at 37 °C, 5% CO2 in a humidiﬁed incubator overnight. Compounds (10 mM stock in DMSO) were diluted to a half-log scale and added to the cells. Plates were further incubated at 37 °C for 18 hours.
Following incubation, 100 μL per well Promega Nano -Glo HiBiT lytic detection reagent mix (Promega Nano -Glo HiBiT Lytic Detection System #N3050), prepared according to the manufacturer´s instructions in the kit, were added. The plates were incubated on an orbital shaker for 10 min. Luminescence was measured using plate reader (BMG L abtech PHERA star).

Solubility = type: physicochemical; details: for solubility (qualitative remark): visual or general observation; for solubility: 5% PBS buffer, saline
Source text: (§1) Moreover, the solubility of both final compounds was low (5% PBS buffer, saline). These examples were merely chosen to showcase the synthetic potential of the chemistry rather than a medicinal chemistry-focused PROTAC optimization approach for which scope remains to optimize PK properties in future heterofunctional molecules. For example, the alkyne functionality, present in the A^3 products 2a and 2c, although present in a number of marketed, bioactive molecules,[37] even PROTACs,[38] acting as a rigid hydrophobic spacer, can be reduced by catalytic hydrogenation[39] to afford a saturated, more flexible yet possibly less metabolically labile linker.

BRD4 long and short = experiment: Western blot of BRD4 degradation; type: cell-based
Method: Figure 2 Representative Western blot of 7a degradation of BRD4 performed in HEK293 cell line after 18 h treatment. The experiment was done as n = 3 independent biological replicates.
The best analogue, 7a, was next shown, by Western blot, to degrade both BRD4 long and short in the 300–1000 nM range, reversed by the addition of either proteasome or neddylation inhibitors or by thalidomide.
Cell culture. HEK293 CRISPR HIBIT BRD4 cells were generated at CeTPD using CRISPR -CAS technology. Parental HEK293 and HEK293 CRISPR HIBIT BRD4 cell lines were cultured in DMEM media (Gibco), supplemented with 10% fetal bovine serum (FBS), and were kept at 37 °C, 5% CO2 in a humidiﬁed incubator.
BRD4 Degradation A ssays used a HiBiT Lytic assay. […]
(§2) Following incubation, 100 μL per well Promega Nano -Glo HiBiT lytic detection reagent mix (Promega Nano -Glo HiBiT Lytic Detection System #N3050), prepared according to the manufacturer´s instructions in the kit, were added. […] Luminescence was measured using plate reader (BMG L abtech PHERA star).
(§3) Luminescence levels in the treatment wells were normalised to DMSO-treated samples and plotted as percentage of DMSO control in GraphPad Prism (10.2.3).Western blot 5x10^5 HEK293 CRISPR HIBIT BRD4 cells were seeded into 6-well plates 24 hours before treatment. […]
(§4) Fluorescence Polarization (FP). […]

[1] = Microsomal stability (HLM); type: in vitro ADME; details: human, human liver microsomes
Source text: as §1

[2] = Bidirectional permeability (Papp A-B, B-A); type: in vitro ADME; details: for A-B Permeability: class in words; for Papp A→B / Papp B→A: not told; for Papp A→B: A-B direction; for Papp B→A: B-A direction
Source text: (§5) Figure S3 . PK data for 7a and 7c.
(§6) (2 pictures or pasted objects on this page, not shown here)

P-gp [3] = experiment: Bidirectional permeability (Papp A-B, B-A); type: in vitro ADME; details: not told
Source text: as §5, §6

P-gp [4] = target: P-gp (Homo sapiens, UniProt P08183); experiment: P-gp substrate classification from efflux ratio; type: in vitro ADME
Source text: as §5, §6

[5] = target: CRBN-DDB1 (cereblon DNA damage-binding protein 1 complex) (Homo sapiens, UniProt Q96SW2); experiment: Fluorescence polarization (FP) CRBN-binding assay, direct titration; details: 1 nM 4c titrated with CRBN-DDB1, triplicates, read-out: dissociation constant (Kd)
Source text: Medicinal chemistry scope was expanded by the synthesis of a few representative linkers, which were elaborated to modalities adorned with a cellular marker, an E3 ligase motif, and a free alcohol function. […] Initially, treatment with Pd(dba)2, dppb, and thiosalicylic acid removed the allyl protecting group to give 2m in 39% yield. The resulting secondary amine was coupled to a bodipy-containing carboxylic acid 3([25]) to afford the Boc-protected linker 4a (82% yield, Scheme 3). Simple Boc removal with acid exposed the secondary amine 4b intermediate, which was coupled to an acid comprising E3 ligand affording 4c. Such modalities have a free “handle” that could be added to a POI-binding ligand of choice, e.g., by substitution chemistry, esterification, or ether formation. […]
as §2, §3, §4

P-gp (Homo sapiens, UniProt P08183), sequence (P08183 whole entry): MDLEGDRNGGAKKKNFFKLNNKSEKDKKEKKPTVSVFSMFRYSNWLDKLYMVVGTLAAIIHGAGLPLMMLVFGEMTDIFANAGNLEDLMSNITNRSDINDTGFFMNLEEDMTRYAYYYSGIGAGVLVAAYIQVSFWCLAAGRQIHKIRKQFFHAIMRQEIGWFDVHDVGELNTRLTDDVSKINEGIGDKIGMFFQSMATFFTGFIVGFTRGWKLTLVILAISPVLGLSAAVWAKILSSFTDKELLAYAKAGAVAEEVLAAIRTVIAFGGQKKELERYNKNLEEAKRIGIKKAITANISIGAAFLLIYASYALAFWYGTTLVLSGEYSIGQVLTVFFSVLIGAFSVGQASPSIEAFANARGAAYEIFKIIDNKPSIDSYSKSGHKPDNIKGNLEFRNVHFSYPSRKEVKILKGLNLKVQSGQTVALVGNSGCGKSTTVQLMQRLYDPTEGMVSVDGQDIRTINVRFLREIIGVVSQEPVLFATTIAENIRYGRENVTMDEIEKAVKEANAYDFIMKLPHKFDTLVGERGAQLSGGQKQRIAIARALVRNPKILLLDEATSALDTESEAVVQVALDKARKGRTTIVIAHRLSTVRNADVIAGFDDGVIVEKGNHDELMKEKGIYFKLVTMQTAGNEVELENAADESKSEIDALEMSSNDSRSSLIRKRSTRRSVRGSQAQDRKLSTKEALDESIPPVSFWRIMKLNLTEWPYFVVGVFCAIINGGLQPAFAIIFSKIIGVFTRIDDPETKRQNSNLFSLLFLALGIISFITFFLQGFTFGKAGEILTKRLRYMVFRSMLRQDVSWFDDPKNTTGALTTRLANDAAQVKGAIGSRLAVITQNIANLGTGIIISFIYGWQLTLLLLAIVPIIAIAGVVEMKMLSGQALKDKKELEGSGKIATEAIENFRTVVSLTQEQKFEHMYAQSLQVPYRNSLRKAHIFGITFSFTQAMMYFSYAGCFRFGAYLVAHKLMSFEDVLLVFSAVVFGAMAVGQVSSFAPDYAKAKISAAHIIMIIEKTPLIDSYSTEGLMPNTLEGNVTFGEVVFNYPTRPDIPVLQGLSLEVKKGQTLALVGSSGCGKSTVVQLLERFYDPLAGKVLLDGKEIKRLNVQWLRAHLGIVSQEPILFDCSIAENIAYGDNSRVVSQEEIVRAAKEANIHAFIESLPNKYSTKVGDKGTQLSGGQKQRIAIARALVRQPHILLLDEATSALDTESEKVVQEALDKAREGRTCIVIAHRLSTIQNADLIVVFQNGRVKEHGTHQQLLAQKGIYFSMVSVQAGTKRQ
CRBN-DDB1 (cereblon DNA damage-binding protein 1 complex), sequence (Q96SW2 whole entry): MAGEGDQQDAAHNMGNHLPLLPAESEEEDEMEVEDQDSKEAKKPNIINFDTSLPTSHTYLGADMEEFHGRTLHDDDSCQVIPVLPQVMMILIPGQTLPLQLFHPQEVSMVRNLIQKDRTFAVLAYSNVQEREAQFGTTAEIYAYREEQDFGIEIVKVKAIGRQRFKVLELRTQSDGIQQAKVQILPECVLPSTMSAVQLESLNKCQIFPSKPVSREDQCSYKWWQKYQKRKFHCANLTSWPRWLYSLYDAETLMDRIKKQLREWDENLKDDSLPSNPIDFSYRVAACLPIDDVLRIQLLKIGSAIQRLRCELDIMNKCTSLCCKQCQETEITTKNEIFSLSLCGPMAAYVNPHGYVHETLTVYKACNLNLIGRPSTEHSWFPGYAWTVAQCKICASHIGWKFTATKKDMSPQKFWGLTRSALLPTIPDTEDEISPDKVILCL
CRBN-DDB1 (cereblon DNA damage-binding protein 1 complex), sequence (Q16531 whole entry partner): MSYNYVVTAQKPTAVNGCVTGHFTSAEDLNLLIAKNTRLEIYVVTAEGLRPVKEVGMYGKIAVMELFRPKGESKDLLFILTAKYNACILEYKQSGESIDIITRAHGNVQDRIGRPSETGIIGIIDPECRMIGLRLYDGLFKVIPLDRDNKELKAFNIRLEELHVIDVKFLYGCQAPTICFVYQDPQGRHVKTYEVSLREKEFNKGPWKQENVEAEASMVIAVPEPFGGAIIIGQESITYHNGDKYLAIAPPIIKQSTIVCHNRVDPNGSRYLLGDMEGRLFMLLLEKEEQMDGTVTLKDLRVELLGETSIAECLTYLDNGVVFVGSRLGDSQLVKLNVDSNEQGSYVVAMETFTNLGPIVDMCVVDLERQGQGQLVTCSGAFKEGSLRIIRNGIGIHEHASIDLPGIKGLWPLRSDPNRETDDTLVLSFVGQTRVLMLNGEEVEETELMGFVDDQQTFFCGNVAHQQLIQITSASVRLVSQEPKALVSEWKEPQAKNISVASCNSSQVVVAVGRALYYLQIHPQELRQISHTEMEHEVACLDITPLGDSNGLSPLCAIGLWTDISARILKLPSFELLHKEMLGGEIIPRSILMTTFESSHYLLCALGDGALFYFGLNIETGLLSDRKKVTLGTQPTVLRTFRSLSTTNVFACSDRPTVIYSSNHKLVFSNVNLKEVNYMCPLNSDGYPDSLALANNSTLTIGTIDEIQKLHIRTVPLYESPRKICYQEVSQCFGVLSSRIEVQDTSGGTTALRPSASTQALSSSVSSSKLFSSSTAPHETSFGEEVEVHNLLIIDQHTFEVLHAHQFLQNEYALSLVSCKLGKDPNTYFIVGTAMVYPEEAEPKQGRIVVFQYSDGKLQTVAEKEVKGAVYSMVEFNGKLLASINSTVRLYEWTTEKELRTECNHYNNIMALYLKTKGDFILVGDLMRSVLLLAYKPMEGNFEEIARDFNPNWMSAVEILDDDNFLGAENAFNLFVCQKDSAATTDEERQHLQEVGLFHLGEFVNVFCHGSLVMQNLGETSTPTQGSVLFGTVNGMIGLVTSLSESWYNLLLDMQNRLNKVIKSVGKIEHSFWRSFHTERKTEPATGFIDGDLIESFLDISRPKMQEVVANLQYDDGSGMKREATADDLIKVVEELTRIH

DC50 (BRD4; 18 h) [nM] | DC50 (BRD4; 18 h after dosage) [nM] | half-life at 1 h [1] [min] | microsomal CLint [1] [µL/min/mg] | A-B Permeability [2] | Papp A→B [2] [×10⁻⁶ cm/s] | Papp B→A [2] [×10⁻⁶ cm/s] | efflux ratio (P-gp [3]) | P-gp Substrate (P-gp [4]) | solubility (Solubility) | Structure (SMILES) | solubility (qualitative remark) (Solubility) | degradation on addition of proteasome or neddylation inhibitors or thalidomide (BRD4 long and short; 10 µM 7a with 10 µM MG132, MLN4924 or thalidomide, 18 h) | concentration range degrading BRD4 long and short (BRD4 long and short; HEK293 cell line, 18 h treatment) [nM] | Kd [5] [nM]
> 1000 |  |  |  |  |  |  |  |  |  | Cc1ncsc1-c1ccc(CNC(=O)[C@@H]2C[C@@H](O)CN2C(=O)[C@@H](NC(=O)CCCCC(=O)NC2CCN(C(C#CCCSc3ccc(C(=O)NCCNC(=O)C[C@@H]4N=C(c5ccc(Cl)cc5)c5c(sc(C)c5C)-n5c(C)nnc54)cc3)C3CCOCC3)CC2)C(C)(C)C)cc1 (stereo partly shown) [Compound 7b] | poor solubility; also recorded: visibly poorly soluble |  |  | 
 | 89.4 | 6.64 | 209 | low permeability and Low | 0.007 | 0.01 | 1.4 | Not-Substrate | low solubility | Cc1sc2c(c1C)C(c1ccc(Cl)cc1)=N[C@@H](CC(=O)NCCNC(=O)c1ccc(SCCC#CC(C3CCOCC3)N3CCC(NC(=O)COc4cccc5c4C(=O)N(C4CCC(=O)NC4=O)C5=O)CC3)cc1)c1nnc(C)n1-2 (stereo partly shown) [Compound 7a] |  | reversed | 300 to 1000 | 
> 1000 |  | 17.5 | 79.1 | low permeability and Low | < 0.1 | < 0.1 |  |  | low solubility | Cc1sc2c(c1C)C(c1ccc(Cl)cc1)=N[C@@H](CC(=O)NCC#CC(C1CCN(C(=O)COc3cccc4c3C(=O)N(C3CCC(=O)NC3=O)C4=O)CC1)N1CCN(C(=O)COc3cccc4c3C(=O)N(C3CCC(=O)NC3=O)C4=O)CC1)c1nnc(C)n1-2 (stereo partly shown) [Compound 7c] | poor solubility |  |  | 
 |  |  |  |  |  |  |  |  |  | CC1=CC(C)=[N+]2C1=C(CCC(=O)N1CCN(C(C#CCCO)C3CCC(NC(=O)CCOCCOCCNC(=O)c4ccc5c(c4)C(=O)N(C4CCC(=O)NC4=O)C5=O)CC3)CC1)c1c(C)cc(C)n1[B-]2(F)F (stereo not shown) [Compound 4c] |  |  |  | 166 ± 3.5
